Our source for the Ki values is patent US8481738B2, “Gonadotropin-releasing hormone receptor antagonists and methods relating thereto” (Neurocrine Biosciences, Inc., priority 2007, dated 2013).

The structures appear in SMILES notation.

The Ki is the dissociation constant of the complex between target and ligand, obtained from inhibition or displacement. Read a high Ki as weaker binding.

In this assay the target is T1, human GnRH receptor (Homo sapiens, UniProt P30968).
T1 construct: expressed in transfected cells; host or cells: RBL cells, stably transfected (in general)
T1 sequence (P30968 1-328): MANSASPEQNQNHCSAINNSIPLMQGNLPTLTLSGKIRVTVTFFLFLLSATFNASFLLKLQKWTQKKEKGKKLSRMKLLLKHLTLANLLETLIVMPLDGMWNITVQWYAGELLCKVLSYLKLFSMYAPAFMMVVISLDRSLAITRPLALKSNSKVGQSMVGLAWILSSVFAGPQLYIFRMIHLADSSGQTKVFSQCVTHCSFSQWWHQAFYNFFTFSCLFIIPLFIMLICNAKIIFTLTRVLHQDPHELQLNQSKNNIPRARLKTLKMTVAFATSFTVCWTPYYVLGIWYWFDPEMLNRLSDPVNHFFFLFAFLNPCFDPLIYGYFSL
The experiment in a line: Peptide competition radioligand binding displacement assay, human GnRH receptor membranes. The settings on record: one or more of the peptide competition human receptor binding assays. The gist of the method: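 Membranes for radioligand binding were prepared from RBL cells stably expressing human GnRH receptor, which were lysed by nitrogen cavitation at 900 psi, 4° C. Membranes from HEK293 cells stably transfected with human receptor were held in 10 mM HEPES pH 7.5, 150 mM NaCl, 0.1% BSA. Transiently transfected COS-7 cells were used for other species.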
On to `COc1ccccc1N(C)C(=O)c1cc(-c2cnc(C(F)(F)F)cc2C#N)c(Cl)cc1OCCN1CCC[C@H]1C(=O)O` [49-3], for which the Ki is at most 100 nM.
Take `COc1ccccc1N(C)C(=O)c1cc(-c2cnc(C(F)(F)F)cc2C#N)c(Cl)cc1OCCN(C)S(C)(=O)=O` [48-2, 4-Chloro-5-(4-cyano-6-trifluoromethyl-pyridin-3-yl)-2-[2-(methanesulfonyl-methyl-amino)-ethoxy]-N-(2-methoxy-phenyl)-N-methyl-benzamide]: the Ki was at most 100 nM.
For `COCCN(C)C(=O)c1cc(-c2cnc(C(F)(F)F)cc2C#N)c(Cl)cc1OCCCC(=O)O` [34-24], the Ki is at most 100 nM.
With `CN(C(=O)c1ccc(Cl)c(-c2cnc(C(F)(F)F)cc2C#N)c1)c1ccccc1OCCc1n[nH]c(=O)o1` [31-1, 4-Chloro-3-(4-cyano-6-trifluoromethyl-pyridin-3-yl)-N-methyl-N-{2-[2-(5-oxo-4,5-dihydro-[1,3,4]oxadiazol-2-yl)ethoxy]-phenyl}-benzamide], the Ki is at most 100 nM.
As to `COc1cccc(N(C)C(=O)c2cc(-c3cnc(C(F)(F)F)cc3C#N)c(Cl)cc2OC)n1` [39-23], the Ki is at most 100 nM.
In turn, `COc1ccccc1N(C)C(=O)c1ccc(Cl)c(-c2cnc(C(F)(F)F)cc2C#N)c1` [2-14] came in with a Ki of at most 100 nM.
In turn, `Cc1cc(C(F)(F)F)nc(=O)n1-c1cc(C(=O)N(C)c2ccccc2F)ccc1Cl` [30-16] yielded a Ki of at most 100 nM.
`Cc1cccc(C)c1N(C)C(=O)c1ccc(Cl)c(-c2ncc(C(F)(F)F)cc2Cl)c1` [2-65]: the Ki is at most 100 nM.
Next, `COc1ccccc1N(C)C(=O)c1ccc(Cl)c(-c2c(Cl)cc(Cl)c[n+]2[O-])c1` [27-1, 4-Chloro-3-(3,5-dichloro-1-oxy-pyridin-2-yl)-N-(2-methoxy-phenyl)-N-methyl-benzamide]: at most 100 nM; `COc1cc(Cl)c(-c2cnc(C(F)(F)F)cc2C#N)cc1C(=O)N(C)c1ncccc1C` [39-21]: at most 100 nM; `COc1cccc(C)c1N(C)C(=O)c1ccc(Cl)c(-c2cnc(Cl)cc2Cl)c1` [2-29]: at most 100 nM.
Next, `Cc1cc(C#N)ncc1-c1cc(C(=O)N(C)c2c(C)cccc2C)c(OCCCC(=O)O)cc1Cl` [22-8]: at most 100 nM.
In turn, `Cc1cccc(OCCC(=O)O)c1N(C)C(=O)c1ccc(Cl)c(-c2ccc(C(F)(F)F)cc2C#N)c1` [11-8] displayed a Ki of at most 100 nM.
`CN(C(=O)c1cc(-c2cnc(C(F)(F)F)cc2C#N)c(Cl)cc1OCCCC(=O)O)c1ccccc1OC(F)(F)F` [34-3]: the Ki is at most 100 nM.
In the case of `CN(C(=O)c1ccc(Cl)c(-c2cnc(C(F)(F)F)cc2C#N)c1)c1ccccc1OCCC(=O)O` [11-4, 3-(2-{[4-chloro-3-(4-cyano-6-trifluoromethyl-pyridin-3-yl)-benzoyl]-methyl-amino}-phenoxy)-propionic acid], the Ki is at most 100 nM.
`COC(=O)c1ccccc1N(C)C(=O)c1cc(-c2cnc(C(F)(F)F)cc2C#N)c(Cl)cc1OC` [39-2] came in with a Ki of at most 100 nM.
The figure for `Cc1cc(Cl)ncc1-c1cc(C(=O)N(C)c2ccccc2F)ccc1Cl` [2-36] is at most 100 nM; for `Cc1cc(Cl)ncc1-c1cc(C(=O)N(C)c2ccccc2OCCCC(=O)O)ccc1Cl` [4-2] it is at most 100 nM; for `Cc1cc(C#N)ncc1-c1cc(C(=O)N(C)c2cccc(F)c2OCCCC(=O)O)ccc1Cl` [4-9] it is at most 100 nM.
The figure for `CN(C(=O)c1ccc(Cl)c(-c2cnc(C(F)(F)F)cc2C#N)c1)c1ccccc1CCCC(=O)O` [14-4] is at most 100 nM.
`Cc1cc(C(F)(F)F)ncc1-c1cc(C(=O)N(C)c2ccccc2OCCC(=O)O)ccc1Cl` [11-3] displayed a Ki of at most 100 nM.
`COc1cccc(CN(C)C(=O)c2cc(-c3cnc(C(F)(F)F)cc3C#N)c(Cl)cc2OC)c1` [39-18] registered a Ki of at most 100 nM.
Turning to `CN(C(=O)c1ccc(Cl)c(-c2cnc(C(F)(F)F)cc2C#N)c1)c1ccccc1OCCC(=O)OCOC(=O)C(C)(C)C` [36-1, 2,2-Dimethyl-propionic acid 3-(2-{[4-chloro-3-(4-cyano-6-trifluoromethyl-pyridin-3-yl)-benzoyl]-methyl-amino}-phenoxy)-propionyloxymethyl ester], the inhibition constant Ki was at most 100 nM.
For the molecule `CCN(C(=O)c1ccc(Cl)c(-c2ncc(Cl)cc2Cl)c1)c1ccccc1OC` [17-2], the Ki is at most 100 nM.
In the case of `COc1cccc(C)c1N(C)C(=O)c1cc(-c2cnc(C(F)(F)F)cc2C#N)c(Cl)cc1OCCO` [21-7], the Ki is at most 100 nM.
Regarding `Cc1cc(Br)ncc1-c1cc(C(=O)N(C)c2ccccc2F)ccc1Cl` [2-39], the Ki is at most 100 nM.
`COCc1ccccc1N(C)C(=O)c1cc(-c2cnc(C(F)(F)F)cc2C#N)c(Cl)cc1OCCCC(=O)O` [34-5] gave a Ki of at most 100 nM.
`COc1cc(Cl)c(-c2cnc(C(F)(F)F)cc2C#N)cc1C(=O)N(C)c1ccccc1OC` [38-1, 4-Chloro-5-(4-cyano-6-trifluoromethyl-pyridin-3-yl)-2-methoxy-N-(2-methoxy-phenyl)-N-methyl-benzamide] came in with a Ki of at most 100 nM.
`Cc1ccccc1N(C)C(=O)c1ccc(Cl)c(-c2ccc(Cl)nc2)c1` [2-15]: the Ki was at most 100 nM.
Next, `COc1ccccc1N(C)C(=O)c1ccc(Cl)c(-c2nc3ccccc3cc2C#N)c1` [2-49]: at most 100 nM; `COc1ccccc1N(C)C(=O)c1cc(-c2cnc(C(F)(F)F)cc2C#N)c(Cl)cc1OCCCc1ccncc1` [42-9]: at most 100 nM; `COc1cccc(C)c1N(C)C(=O)c1ccc(Cl)c(-c2cnc(C(F)(F)F)cc2C#N)c1` [2-35]: at most 100 nM.
The molecule `Cc1cc(Cl)c(-c2cc(C(=O)N(C)c3cccc(C)c3C)ccc2Cl)c(C)n1` [2-21] showed a Ki of at most 100 nM.
On to `Cc1cc(C#N)ncc1-c1cc(C(=O)N(C)c2c(C)cccc2C)c(OCCCCO)cc1Cl` [21-5], for which the Ki is at most 100 nM.
The figure for `Cc1cc(Cl)c(-c2cc(C(=O)N(C)c3c(C)cccc3C)ccc2Cl)cn1` [2-19] is at most 100 nM; for `COc1ccc(C)cc1N(C)C(=O)c1cc(-c2cnc(C(F)(F)F)cc2C#N)c(Cl)cc1OCCCC(=O)O` [34-12] it is at most 100 nM; for `COc1cc(Cl)c(-c2cnc(C(F)(F)F)cc2C#N)cc1C(=O)N(C)c1cc(F)ccc1OC` [39-5] it is at most 100 nM.
In the case of `Cc1cc(C(F)(F)F)ncc1-c1cc(C(=O)N(C)c2c(C)cccc2OCCC(=O)O)ccc1Cl` [11-5], the Ki was at most 100 nM.
`CN(C(=O)c1ccc(Cl)c(-c2nc3cccc(F)c3cc2C#N)c1)c1ccccc1OCCCC(=O)O` [33-1, 4-(2-{[4-Chloro-3-(3-cyano-5-fluoro-quinolin-2-yl)-benzoyl]-methyl-amino}-phenoxy)-butyric acid] came in with a Ki of at most 100 nM.
As to `COC(=O)CCCOc1ccccc1N(C)C(=O)c1ccc(Cl)c(-c2cnc(C#N)cc2C)c1` [3-8], the Ki was at most 100 nM.
Next, `COc1ccccc1N(C)C(=O)c1cc(-c2cnc(C(F)(F)F)cc2C#N)c(Cl)cc1OCCCc1ccccn1` [42-6]: at most 100 nM; `Cc1cc(C#N)ncc1-c1cc(C(=O)N(C)c2ccccc2OCCCC(=O)O)ccc1Cl` [5-1, 4-(2-{[4-Chloro-3-(6-cyano-4-methyl-pyridin-3-yl)-benzoyl]-methyl-amino}-phenoxy)-butyric acid]: at most 100 nM.
Next, `COc1ccccc1N(C)C(=O)c1ccc(Cl)c(-c2ncc(F)cc2F)c1` [2-59]: at most 100 nM.
`COc1ccccc1CCOc1cc(Cl)c(-c2cnc(C(F)(F)F)cc2C#N)cc1C(=O)N(C)c1ccccc1OC` [46-2] came in with a Ki of at most 100 nM.
Molecule `COc1cccc(C)c1N(C)C(=O)c1cc(-c2cnc(C#N)cc2C)c(Cl)cc1OCCCC(=O)O` [22-2] registered a Ki of at most 100 nM.
Take `COC(=O)CCCOc1ccccc1N(C)C(=O)c1ccc(Cl)c(-c2cnc(Cl)cc2C)c1` [3-2]: the inhibition constant (Ki) was at most 100 nM.
